# Experimental data as given in US7932270B2 (Cytokinetics, Inc., priority 2006, dated 2011).
# Biological target: T1, chicken gizzard smooth muscle myosin subfragment-1 chemically crosslinked to cardiac or skeletal actin (Gallus gallus, UniProt P10587)
# T1 construct: chicken gizzard smooth muscle myosin subfragment-1; from tissue; host or cells: chicken gizzard
# Assay: Smooth muscle myosin ATPase dose response assay (pyruvate kinase/horseradish peroxidase/pyruvate oxidase-coupled, amplex red fluorescence)
# Type: biochemical
# Details: read-out: IC50 Arithmetic Mean
# Summary of the method: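 Lead-optimization format: ATPase coupled via pyruvate kinase, pyruvate oxidase and peroxidase, pH 7.00 at 22° C, with 0.15 mM ATP, 100 mM KCl, 2 mM MgCl2, 2 mM phosphate and 0.1 mM amplex red (final). Crosslinked S1 titrated empirically for set hydrolysis rate; fluorescence (ex 480/em 615 nm) dose curves fit 4-parameter for IC50.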
# T1 sequence (P02607 2-151): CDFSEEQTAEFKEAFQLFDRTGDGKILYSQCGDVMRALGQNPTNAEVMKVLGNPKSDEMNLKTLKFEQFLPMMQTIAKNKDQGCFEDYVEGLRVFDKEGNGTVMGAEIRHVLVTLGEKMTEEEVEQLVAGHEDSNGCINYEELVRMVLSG
# T1 sequence (P10587 84-789): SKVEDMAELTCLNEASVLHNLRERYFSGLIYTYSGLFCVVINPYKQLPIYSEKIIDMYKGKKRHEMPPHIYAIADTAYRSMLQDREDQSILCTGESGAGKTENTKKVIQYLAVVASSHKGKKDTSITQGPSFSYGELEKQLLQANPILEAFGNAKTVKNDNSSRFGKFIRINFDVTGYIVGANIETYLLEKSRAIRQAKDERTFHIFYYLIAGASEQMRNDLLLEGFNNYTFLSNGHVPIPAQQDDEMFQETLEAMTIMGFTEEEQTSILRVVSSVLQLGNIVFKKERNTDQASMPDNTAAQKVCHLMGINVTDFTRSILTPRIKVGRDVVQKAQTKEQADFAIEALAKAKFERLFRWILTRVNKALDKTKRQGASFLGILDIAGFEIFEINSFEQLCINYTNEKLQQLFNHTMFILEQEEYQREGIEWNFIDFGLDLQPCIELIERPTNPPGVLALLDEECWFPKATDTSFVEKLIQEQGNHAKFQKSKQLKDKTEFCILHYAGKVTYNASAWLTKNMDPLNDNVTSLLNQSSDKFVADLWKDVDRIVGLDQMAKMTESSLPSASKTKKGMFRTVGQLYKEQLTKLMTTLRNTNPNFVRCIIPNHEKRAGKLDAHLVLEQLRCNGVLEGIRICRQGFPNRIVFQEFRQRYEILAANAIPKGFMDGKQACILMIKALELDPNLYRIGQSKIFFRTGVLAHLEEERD
row,SMILES,IC50 [µM]
1,CC(C)(C)OC(=O)NCCCN1C(=O)CC[C@H]1CNC(=O)c1ccc(-c2ccccc2C#N)nc1NCCc1cccc(F)c1 [N-[((2S)-1-{3-[(tert-butoxy)carbonylamino]propyl}-5-oxopyrrolidin-2-yl)methyl](6-(2-cyanophenyl)-2-{[2-(3-fluorophenyl)ethyl]amino}(3-pyridyl))carboxamide],4.52
2,CN1CCN[C@@H](CNC(=O)c2ccc(-c3ccccc3C#N)nc2NCCc2cccc(F)c2)C1 [N-[((2S)-4-methylpiperazin-2-yl)methyl](6-(2-cyanophenyl)-2-{[2-(3-fluorophenyl)ethyl]amino}(3-pyridyl))carboxamide],2.92
3,N#Cc1ccccc1-c1ccc(C(=O)NC[C@@H]2CCC(=O)N2)c(NCCc2cccc(F)c2)n1 [N-[((2S)-5-oxopyrrolidin-2-yl)methyl](6-(2-cyanophenyl)-2-{[2-(3-fluorophenyl)ethyl]amino}(3-pyridyl))carboxamide],0.133
4,Cn1cc(-c2ccc(C(=O)NC[C@@H]3CNCC(=O)N3)c(NCCc3cccc(F)c3)n2)cn1 [N-[((2S)-6-oxopiperazin-2-yl)methyl](2-{[2-(3-fluorophenyl)ethyl]amino}-6-(1-methylpyrazol-4-yl)(3-pyridyl))carboxamide],13.1
5,O=C1CNC[C@@H](CNC(=O)c2ccc(-c3cc[nH]n3)nc2NCCc2cccc(F)c2)N1 [N-[((2S)-6-oxopiperazin-2-yl)methyl](2-{[2-(3-fluorophenyl)ethyl]amino}-6-pyrazol-3-yl(3-pyridyl))carboxamide],6.39
6,O=C1CNC[C@@H](CNC(=O)c2ccc(-c3cn[nH]c3)nc2NCCc2cccc(F)c2)N1 [N-[((2S)-6-oxopiperazin-2-yl)methyl](2-{[2-(3-fluorophenyl)ethyl]amino}-6-pyrazol-4-yl(3-pyridyl))carboxamide],16
7,N#Cc1ccccc1-c1ccc(C(=O)NC[C@@H]2CNCC(=O)N2)c(NCCc2cccc(F)c2)n1 [N-[((2S)-6-oxopiperazin-2-yl)methyl](6-(2-cyanophenyl)-2-{[2-(3-fluorophenyl)ethyl]amino}(3-pyridyl))carboxamide],0.819
8,O=C(NC[C@@H]1CCCO1)c1ccc(-c2ccccc2)nc1NCCc1ccccn1 [N-[((2S)oxolan-2-yl)methyl]{6-phenyl-2-[(2-(2-pyridyl)ethyl)amino](3-pyridyl)}carboxamide],6.82
9,N#Cc1ccccc1-c1ccc(C(=O)NC[C@@H]2CCCN2)c(NCCc2cccc(F)c2)n1 [N-[((2S)pyrrolidin-2-yl)methyl](6-(2-cyanophenyl)-2-{[2-(3-fluorophenyl)ethyl]amino}(3-pyridyl))carboxamide],4.57
10,N#Cc1ccccc1-c1ccc(C(=O)NC[C@@H]2CCCNC2)c(NCCc2cccc(F)c2)n1 [N-[((3R)(3-piperidyl))methyl](6-(2-cyanophenyl)-2-{[2-(3-fluorophenyl)ethyl]amino}(3-pyridyl))carboxamide],2.15
11,CC(=O)N1CCC[C@H](CNC(=O)c2ccc(-c3ccccc3C#N)nc2NCCc2cccc(F)c2)C1 [N-[((3R)-1-acetyl(3-piperidyl))methyl](6-(2-cyanophenyl)-2-{[2-(3-fluorophenyl)ethyl]amino}(3-pyridyl))carboxamide],0.696
12,CC(=O)N1CC[C@H](CNC(=O)c2ccc(-c3ccccc3)nc2NCCc2ccccn2)C1 [N-[((3R)-1-acetylpyrrolidin-3-yl)methyl]{6-phenyl-2-[(2-(2-pyridyl)ethyl)amino](3-pyridyl)}carboxamide],26.9
13,CC(C)(C)OC(=O)NCC(=O)N1CCC[C@H](CNC(=O)c2ccc(-c3ccccc3C#N)nc2NCCc2cccc(F)c2)C1 [N-[((3R)-1-{2-[(tert-butoxy)carbonylamino]acetyl}(3-piperidyl))methyl](6-(2-cyanophenyl)-2-{[2-(3-fluorophenyl)ethyl]amino}(3-pyridyl))carboxamide],0.199
14,CC(C)(C)OC(=O)NCCC(=O)N1CCC[C@H](CNC(=O)c2ccc(-c3ccccc3C#N)nc2NCCc2cccc(F)c2)C1 [N-[((3R)-1-{3-[(tert-butoxy)carbonylamino]propanoyl}(3-piperidyl))methyl](6-(2-cyanophenyl)-2-{[2-(3-fluorophenyl)ethyl]amino}(3-pyridyl))carboxamide],3.79
15,CC(C)(C)OC(=O)NCCCC(=O)N1CCC[C@H](CNC(=O)c2ccc(-c3ccccc3C#N)nc2NCCc2cccc(F)c2)C1 [N-[((3R)-1-{4-[(tert-butoxy)carbonylamino]butanoyl}(3-piperidyl))methyl](6-(2-cyanophenyl)-2-{[2-(3-fluorophenyl)ethyl]amino}(3-pyridyl))carboxamide],6.16
16,O=C(NC[C@@H]1CCNC1)c1ccc(-c2ccccc2)nc1NCCc1ccccn1 [N-[((3R)pyrrolidin-3-yl)methyl]{6-phenyl-2-[(2-(2-pyridyl)ethyl)amino](3-pyridyl)}carboxamide],53.6
17,N#Cc1ccccc1-c1ccc(C(=O)NC[C@H]2CCCNC2)c(NCCc2cccc(F)c2)n1 [N-[((3S)(3-piperidyl))methyl](6-(2-cyanophenyl)-2-{[2-(3-fluorophenyl)ethyl]amino}(3-pyridyl))carboxamide],1.97
18,CC(=O)N1CCC[C@@H](CNC(=O)c2ccc(-c3ccccc3C#N)nc2NCCc2cccc(F)c2)C1 [N-[((3S)-1-acetyl(3-piperidyl))methyl](6-(2-cyanophenyl)-2-{[2-(3-fluorophenyl)ethyl]amino}(3-pyridyl))carboxamide],10.7

row,SMILES,IC50 [µM]
1,CC(=O)N1CC[C@@H](CNC(=O)c2ccc(-c3ccccc3)nc2NCCc2ccccn2)C1 [N-[((3S)-1-acetylpyrrolidin-3-yl)methyl]{6-phenyl-2-[(2-(2-pyridyl)ethyl)amino](3-pyridyl)}carboxamide],25.2
2,O=C(NC[C@H]1CCNC1)c1ccc(-c2ccccc2)nc1NCCc1ccccn1 [N-[((3S)pyrrolidin-3-yl)methyl]{6-phenyl-2-[(2-(2-pyridyl)ethyl)amino](3-pyridyl)}carboxamide],62.6
3,O=C(NCc1ccccc1)c1ccc(-c2ccccc2)nc1NCCc1ccccn1 [N-benzyl{6-phenyl-2-[(2-(2-pyridyl)ethyl)amino](3-pyridyl)}carboxamide],1.56
4,CNC(=O)c1ccc(-c2ccccc2)nc1NCCc1cccc(C)c1 [N-methyl(2-{[2-(3-methylphenyl)ethyl]amino}-6-phenyl(3-pyridyl))carboxamide],6.75
5,CNC(=O)CNC(=O)c1ccc(-c2ccccc2)nc1NCCc1ccccc1 [N-methyl-2-({6-phenyl-2-[(2-phenylethyl)amino](3-pyridyl)}carbonylamino)acetamide],0.486
6,CNC(=O)c1ccc(-c2ccccc2)nc1NCCc1ccccn1 [N-methyl{6-phenyl-2-[(2-(2-pyridyl)ethyl)amino](3-pyridyl)}carboxamide],27.7
7,CNC(=O)c1ccc(-c2ccccc2)nc1NCCc1ccccc1 [N-methyl{6-phenyl-2-[(2-phenylethyl)amino](3-pyridyl)}carboxamide],18.6
8,N#Cc1ccccc1-c1ccc(C(=O)NCCc2ncccc2CN)c(NCCc2cccc(F)c2)n1 [N-{2-[3-(aminomethyl)(2-pyridyl)]ethyl}(6-(2-cyanophenyl)-2-{[2-(3-fluorophenyl)ethyl]amino}(3-pyridyl))carboxamide],0.31
9,NCc1cccc(CCNC(=O)c2ccc(-c3ccccc3)nc2NCCc2cccc(F)c2)n1 [N-{2-[6-(aminomethyl)(2-pyridyl)]ethyl}(2-{[2-(3-fluorophenyl)ethyl]amino}-6-phenyl(3-pyridyl))carboxamide],0.252
10,N#Cc1ccccc1-c1ccc(C(=O)NCCc2cccc(CN)n2)c(NCCc2cccc(F)c2)n1 [N-{2-[6-(aminomethyl)(2-pyridyl)]ethyl}(6-(2-cyanophenyl)-2-{[2-(3-fluorophenyl)ethyl]amino}(3-pyridyl))carboxamide],0.032
11,N#Cc1ccccc1-c1ccc(C(=O)NCCNCCN)c(NCCc2cccc(F)c2)n1 [N-{2-[(2-aminoethyl)amino]ethyl}(6-(2-cyanophenyl)-2-{[2-(3-fluorophenyl)ethyl]amino}(3-pyridyl))carboxamide],0.444
12,N#Cc1ccccc1-c1ccc(C(=O)NCCN2C(=O)CC[C@@H]2CN)c(NCCc2cccc(F)c2)n1 [N-{2-[(5R)-5-(aminomethyl)-2-oxopyrrolidinyl]ethyl}(6-(2-cyanophenyl)-2-{[2-(3-fluorophenyl)ethyl]amino}(3-pyridyl))carboxamide],19.5
13,N#Cc1ccccc1-c1ccc(C(=O)NCCN2C(=O)CC[C@H]2CN)c(NCCc2cccc(F)c2)n1 [N-{2-[(5S)-5-(aminomethyl)-2-oxopyrrolidinyl]ethyl}(6-(2-cyanophenyl)-2-{[2-(3-fluorophenyl)ethyl]amino}(3-pyridyl))carboxamide],17.9
14,CC(=O)NCCNC(=O)c1ccc(-c2ccccc2C#N)nc1NCCc1cccc(F)c1 [N-{2-[(6-(2-cyanophenyl)-2-{[2-(3-fluorophenyl)ethyl]amino}-3-pyridyl)carbonylamino]ethyl}acetamide],0.958
15,CN(CCNC(=O)c1ccc(-c2ccccc2C#N)nc1NCCc1cccc(F)c1)C(=O)OC(C)(C)C [N-{2-[(tert-butoxy)-N-methylcarbonylamino]ethyl}(6-(2-cyanophenyl)-2-{[2-(3-fluorophenyl)ethyl]amino}(3-pyridyl))carboxamide],42.2
16,CN(CCNC(=O)CNC(=O)c1ccc(-c2ccccc2C#N)nc1NCCc1cccc(F)c1)C(=O)OC(C)(C)C [N-{2-[(tert-butoxy)-N-methylcarbonylamino]ethyl}-2-[(6-(2-cyanophenyl)-2-{[2-(3-fluorophenyl)ethyl]amino}(3-pyridyl))carbonylamino]acetamide],65.5
17,CC(=O)NCCCNC(=O)c1cc(F)c(-c2cnn(C)c2)nc1NCCc1cccc(F)c1 [N-{3-[(5-fluoro-2-{[2-(3-fluorophenyl)ethyl]amino}-6-(1-methylpyrazol-4-yl)-3-pyridyl)carbonylamino]propyl}acetamide],2.62
